# How the values were obtained:
# Assay type in all cases: cell-based, human
# H9 hESCs = assay: Screening of culture conditions by immunostaining for Oct4, Sox2, Brachyury, Sox17; conditions: for rescue of Oct4 expression under SB431542: added with SB431542
# Procedure: Table 2 and Table 3 show the screening of culture conditions for inducing mesoendoderm differentiation into CDM. H9 hESCs were grown for 7 days or more in CDM-BSA or CDM-PVA supplemented with different growth factors (Activin, BMP4, FGF2) or inhibitors (SU5402 for FGF, SB431542 for Activin/Nodal/TGFβ, BIO for βCatenin). Then, immunostaining analysis were used to determine the fractions of cells expressing the pluripotent marker Oct-4, neuroectoderm marker Sox2, the mesoderm marker Brachyury, and the endoderm marker Sox17. The quantities of expressing cells were divided into five arbitrary categories. 0 for absence of expression, VL for expressing cells <1%, L for expressing cells <5%, H for expressing cells >10%, VH for expressing cells >50%. IN red are indicated the conditions allowing the generation of mesendoderm cells expressing Brachyury or Sox17.
# HESCs or differentiated progenitors were fixed for 20 minutes at 4° C. in 4% paraformaldehyde (PFA) and then washed three times in PBS. Cells were incubated for 20 minutes at room temperature in PBS containing 10% goat serum (Serotec) and subsequently incubated over night at 4° C. with primary antibody diluted in 1% goat serum in PBS as follows: SSEA-3 (1:100, Santa Cruz), SSAE-1 (1:25), Tra-1-60 (1:100, Santa CruZ), Oct-4 (1:100, Abcam ab18976 or SantaCruz), Sox2 (1:100, Abcam ab15830), Alkaline Phophatase (1:50, Abcam ab17989), Brachyury (1:100, Abcam ab20680 or RandD systems), Sox17 (RandD systems), FoxA2 (1:50, Abcam ab5074), GATA4 (1:250, Santa CruZ), GATA6 (1:200, Abcam ab22600 or Santa Cruz), Vent-2 (1:100, Abcam ab20913), Goosecoid (1:25, Abcam ab21059), Wnt3A (1:100, Abcam ab19925), CXCR4 (1:100, RanD Systems or Pharmingen). Nestin (1:200, Abcam ab5968), NCAM (1:100, Abcam ab8077), GFAP (ZZ), Neurofilament (ZZ), βIII Tubulin (ZZ), Glutamate (ZZ), N-Cadherin (1:100, Abcam ab18203 or ZZ). Cells were then washed three times in PBS and incubated with fluorescein-Isothiocyanate-conjugated anti-mouse IgG or IgM (Sigma 1:200 in 1% goat serum in PBS) or rat IgM (Jackson laboratory 1:300 in goat serum in PBS) or rabbit IgG (Jackson laboratory 1:200 in donkey serum in PBS) for two hours at room temperature. Unbound secondary antibody was removed by 3 washes in PBS. Hoechst 33258 was added to the first wash (Sigma 1:10000).
# We then developed a method for inducing differentiation of hESCs into the three primary germ layers. Culture conditions inductive for mesoderm, endoderm and neuroectoderm were screened using an approach based on immunostaining analyses for the expression of proteins specifically expressed by pluripotent cells (Oct-4), neuroectoderm progenitors (Sox2 in absence of Oct4), endoderm progenitors (Sox17) and mesoderm progenitors (Brachyury). In summary, hESCs grown in CDM (CDM-BSA or hu-CDM) were plated on fibronectin in CDM-BSA/AF or CDM-PVA/AF. Then cocktails of growth factors (BMP4, FGF2, Activin) or chemical inhibitors (SU5402, SB431542) were added at different times and for different periods. After 7 to 10 days treatment, cells were fixed and then the expression of Oct-4/Sox2, Sox17 and Brachyury was analysed using immunostaining. The effect of three growth factors on the differentiation of hESCs into the primary germ layers was systematically analysed in our screen. We also studied the function of FGF and Activin signalling pathways in the maintenance of the pluripotent state by analysing the effect of the SU5402, a chemical inhibitor of FGF receptors, and the SB431542, a chemical inhibitor of Activin/TGFβ receptors.
# hESC derived EBs = assay: Real time qPCR / RT-PCR of neuroectoderm and pluripotency markers in EBs
# Procedure: Four independent batches of WT and Lefty EBs were used for this analysis.
# Five independent batches of DMSO- and SB431542-treated EBs were used for this analysis.
# Lefty or Cerb-S expressing hESCs (as well as wildtype H9 and hSF-6 hESCs) were grown in 6 cm dishes (Corning), on mouse feeders. When confluent, hESCs were passaged using collagenase 1 mg/ml, as previously described (Schatten et al., 2005) and cultured in non-adherent conditions in CDM supplemented with either SU5402 (Calbiochem; 10 μM), SB431542 (Tocris; 20 μM), FGF-2 (R&D Systems; 12 ng/ml) or Noggin 200 ng/ml.
# For some RT-PCR experiments, 50-100 ng of RNA were used for each RT-PCR reaction, using the OneStep RT-PCR kit according to manufacturer instructions. For real-time PCR, 1 μg RNA was reverse-transcribed using the Qiagen QuantiTect Reverse Transcription kit. 1/20-1/40 of each cDNA reaction was used for each real-time PCR reaction using the QuantiTect SYBR Green PCR Kit (Qiagen) according to manufacturer instructions. Relative quantification of gene expression was done by normalising the detected levels of gene of interest mRNA to those of the house-keeping GAPDH gene. All primers were purchased from Qiagen, with the exception of Xenopus Cerb-S: Forward 5′-[…]-3′ (SEQ ID NO: 1); Reverse 5′-ATGGTGCAGGGTAG TAGATG-3′ (SEQ ID NO: 2). Mouse Lefty2: Forward 5^r-[…]-3′ (SEQ ID NO: 3); Reverse 5′-[…]-3′ (SEQ ID NO: 4).
# hESCs [1] = assay: Quantitation of β-tubulin III positive cells in monolayer differentiation; conditions: Lefty expressing hESCs, feeder free monolayer, CDM; FGF 12 ng/ml, Noggin 200 ng/ml, SU5402 20 μM
# Procedure: In some experiments, Wildtype and Lefty expressing hESCs were grown on fibronectin in FGF (12 ng/ml)/Activin (20 ng/ml) as a monolayer in the absence of a feeder layer (Vallier et al., 2005). When cells were 70-80% confluent medium was changed to either CDM only, CDM/FGF (12 ng/ml), CDM/Noggin 200 ng/ml, CDM/SU5402 and differentiated for 24 days.
# To quantify the neurogenic potential of Lefty expressing hESCs, we cultured Lefty expressing hESCs in feeder-free conditions as a monolayer in CDM supplemented with Activin and FGF as described previously (Vallier et al., 2005). When cells reached 70-80% confluency, medium was changed to CDM only, CDM plus FGF (12 ng/ml) (CDM/FGF), CDM plus the BMP inhibitor Noggin (200 ng/ml) ([…]) (CDM/SU5402), and cells were cultured in these conditions for 24 days
# The incidence of neural differentiation was determined by counting the number of β-tubulin III positive cells in random fields.
# hESCs [2] = assay: FACs fraction of cells expressing CXCR4 or PDGFR after mesendoderm induction in CDM PVA; conditions: Activin 100 ng/ml at third step with BMP4 and FGF2, CDM-PVA
# Procedure: Fraction of cells expressing CXCR4 or PDGFa was determined using FACs after the third day in CDM+BMP+FGF+Activin.
# hESCs grown in Feeder free and serum free conditions were harvested using 5 mg/ml collagenase IV then plated into plates pre-coated with fibronectin. hESCs were grown for 48 hours in CDM supplemented with Activin (10 ng/ml, RandD systems) and FGF2 (12 ng/ml, RandD systems). To induce extra-embryonic differentiation, hESCs were grown for 5 additional days in CDM supplemented with BMP4 (10 ng/ml, RandD systems). To obtain neuroectoderm progenitors, hESCs were grown in CDM or in CDM-PVA in the presence of SB431542 (10 μM Tocris) and FGF2 (12 ng/ml, RandD systems) for 7 additional days. The resulting cells were grown in non-adherent conditions for 10 days and then plated back for 5 additional days in CDM to obtain fully differentiated neuronal cells. To obtain mesendoderm precursors, hESCs were grown for 3 additional days in CDM-PVA in the presence of SU5402 (10 μM, Calbiochem) and Activin (5 ng/ml, RandD systems). […]
# For detection of Tra-1-60, SSEA-3, N-CAM, CXCR4 and PDGFαRecptor adherent cells were washed twice in PBS then incubated for 20 minutes at 37 C in cell dissociation buffer (Invitrogen). […] Live cells identified by 7-AAD exclusion were analyzed for surface-marker expression using FACSCalibur.
molecule,measurement,setting,value
"O=C1Nc2cc(Br)ccc2/C1=C1/Nc2ccccc2/C1=N\O [BIO, reference compound]",rescue of Oct4 expression under SB431542,H9 hESCs,not sufficient to rescue the expression of Oct4
"NC(=O)c1ccc(-c2nc(-c3ccc4c(c3)OCO4)c(-c3ccccn3)[nH]2)cc1 [SB431542, 4-(5-Benzol[1,3]dioxol-5-yl-4-pyrldin-2-yl-1H-imidazol-2-yl)-benzamide hydrate]","cells expressing the mesendoderm markers Bra, Sox17, FoxA2, and αFP",H9 hESCs; in the presence of SB431542,never observed
same,"Nestin, Sox3, and NGN2 expression (real time qPCR)","hESC derived EBs; 20 μM, EBs cultured 14-16 days, vs DMSO",average increase
same,pluripotency marker Oct4 (RT-PCR time course),"hESC derived EBs; EBs harvested every 4 days over 16 days, compared to controls",rapid down-regulation
same,Sox1 expression levels (real time qPCR),"hESC derived EBs; EBs in CDM 14-16 days, vs DMSO",not a significant increase
"Cc1c[nH]c(C=C2C(=O)Nc3ccccc32)c1CCC(=O)O [SU5402, 3-[3-(2-Carboxyethyl)-4-methylpyrrol-2-methylidenyl]-2-indolinone, reference compound]",number of β-tubulin III positive cells compared to controls,hESCs [1],significant reduction
FGF2: human fibroblast growth factor 2,rescue of Oct4 expression under SB431542,H9 hESCs,not sufficient to rescue the expression of Oct4
same,number of β-tubulin III positive cells compared to controls,hESCs [1],did not show a significant increase
"Noggin: the BMP inhibitor Noggin (protein, UniProt Q13253 28-232, looked up) Noggin: QHYLHIRPAPSDNLPLVDLIEHPDPIFDPKEKDLNETLLRSLLGGHYDPGFMATSPPEDRPGGGGGAAGGAEDLAELDQLLRQRPSGAMPSEIKGLEFSEGLAQGKKQRLSKKLRRKLQMWLWSQTFCPVLYAWNDLGSRFWPRYVKVGSCFSKRSCSVPEGMVCKPSKSVHLTVLRWRCQRRGGQRCGWIPIQYPIISECKCSC",number of β-tubulin III positive cells compared to controls,hESCs [1],significant increase
"Activin: dimeric polypeptide stimulating the Activin/Nodal pathway (protein, UniProt P08476 311-426, looked up, Inhibin beta A chain) Inhibin beta A chain: GLECDGKVNICCKKQFFVSFKDIGWNDWIIAPSGYHANYCEGECPSHIAGTSGSSLSFHSTVINHYRMRGHSPFANLKSCCVPTKLRPMSMLYYDDGQNIIKKDIQNMIVEECGCS",fraction of cells expressing CXCR4,hESCs [2],70%
same,fraction of cells expressing PDGFR,hESCs [2],7%
same,"expression of neuroectoderm markers Sox1, Sox3, Nestin and NGN2",hESC derived EBs; addition to EB cultures,decreasing expression

# — patent publication US8323971B2, “Differentiation of pluripotent cells into primary germ layer progenitors” (Cambridge Enterprise Limited, priority 2006, dated 2012)
